Assay results taken from ChEMBL document CHEMBL5331047 (Eur J Med Chem, 2022).

Tests used:
[1] = Oral bioavailability in rat; format: ADME, organism-based; conditions: in vivo
[2] = Oral bioavailability in ferret at 10 mg/kg measured upto 24 hrs by LC-MS/MS assay; format: ADME, organism-based, Mustela putorius furo; conditions: in vivo
[3] = Cmax in rat at 20 mg/kg; format: ADME, organism-based; design: dose 20 mg/kg; conditions: in vivo
[4] = AUC in rat at 20 mg/kg; format: ADME, organism-based; design: dose 20 mg/kg; conditions: in vivo
[5] = tested on: Influenza A virus; experiment: Antiviral activity against influenza A virus H5N1 infected in dog MDCK cells assessed as viral growth inhibition; format: functional, organism-based
[6] = Cmax in rat at 10 mg/kg; format: ADME, organism-based; design: dose 10 mg/kg; conditions: in vivo
[7] = AUC in rat at 10 mg/kg; format: ADME, organism-based; design: dose 10 mg/kg; conditions: in vivo
[8] = target: Neuraminidase (Influenza A virus, UniProt B4URF0)

In the case of `CCC(CC)[C@H](NC(C)=O)[C@@H]1[C@H](O)[C@@H](C(=O)O)C[C@H]1NC(=N)N` [PERAMIVIR ANHYDROUS], the bioavailability [1] is reported as 2.5%.

For `CCCCCCCC(=O)OC[C@@H](O)[C@@H](OC)[C@@H]1OC(C(=O)O)=C[C@H](NC(=N)N)[C@H]1NC(C)=O` [LANINAMIVIR OCTANOATE], the bioavailability [2] was 3.5%.

Work on `CCC(CC)O[C@@H]1C=C(C(=O)O)C[C@H](NCc2ccc(Sc3ccccc3)cc2)[C@H]1NC(C)=O` yielded a Cmax [3] of 407 ng/mL and an AUC [4] of 1500 ng·h/mL.

Compound `CCC(CC)O[C@@H]1C=C(C(=O)O)C[C@H](NC(=O)COCCOCCOCCOCCN[C@H](C(=O)N2C[C@H](O)CC2C(=O)NCc2ccc(-c3scnc3C)cc2)C(C)(C)C)[C@H]1NC(C)=O` (some centres undefined) has an EC50 [5] of 290 nM.

Work on `CCC(CC)O[C@@H]1C=C(C(=O)O)CC(N)[C@H]1NC(C)=O` (some centres undefined) yielded a Cmax [6] of 30 ng/mL, an EC50 [5] of 2300 nM and an AUC [7] of 300 ng·h/mL.

`CC(=O)N[C@@H]1[C@@H](N)CC(C(=O)O)=C[C@H]1OC1CCSC1` (some centres undefined) gave an IC50 [8] of 2.9 nM.
